This is an account of results in paper PMC2737144, “Characterization of an Enantioselective Odorant Receptor in the Yellow Fever Mosquito Aedes aegypti” (PLoS ONE, 2009).

Each structure is given as a SMILES string.

The test system of one test is Apis mellifera OR11 (AmOR11).
Assay: not given
The conditions noted are these: Xenopus oocytes; cited from earlier work.
On to `CC(=O)CCCCCC=CC(=O)O` [9-oxo-2-decenoic acid], for which the “concentration range of AmOR11 response” value is given as “nanomolar range”.

For a further test, the system named is Bombyx mori OR1 (BmOR1).
Assay: not given
The following applies: oocyte expression system; cited from earlier work.
Turning to `CCC/C=C\C=C\CCCCCCCCCO` [bombykol], the “concentration range of BmOR1 response” value is reported as “micromolar range”.

For another test, the target named is T1, AaOR8/AaOR7 protein complex (Aedes aegypti, UniProt Q16MN0).
T1 sequence (Q16MN0 32-422): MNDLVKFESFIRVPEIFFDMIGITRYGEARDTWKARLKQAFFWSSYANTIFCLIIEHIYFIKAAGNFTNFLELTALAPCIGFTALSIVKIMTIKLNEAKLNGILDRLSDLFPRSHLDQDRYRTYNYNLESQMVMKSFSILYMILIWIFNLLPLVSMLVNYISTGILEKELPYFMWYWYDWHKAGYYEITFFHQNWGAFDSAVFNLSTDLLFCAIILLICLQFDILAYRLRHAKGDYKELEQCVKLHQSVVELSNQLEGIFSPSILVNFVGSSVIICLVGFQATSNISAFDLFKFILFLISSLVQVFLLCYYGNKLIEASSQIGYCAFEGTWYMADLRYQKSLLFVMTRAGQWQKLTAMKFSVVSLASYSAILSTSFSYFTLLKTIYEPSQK
T1 sequence (Q178U6 1-478 partner): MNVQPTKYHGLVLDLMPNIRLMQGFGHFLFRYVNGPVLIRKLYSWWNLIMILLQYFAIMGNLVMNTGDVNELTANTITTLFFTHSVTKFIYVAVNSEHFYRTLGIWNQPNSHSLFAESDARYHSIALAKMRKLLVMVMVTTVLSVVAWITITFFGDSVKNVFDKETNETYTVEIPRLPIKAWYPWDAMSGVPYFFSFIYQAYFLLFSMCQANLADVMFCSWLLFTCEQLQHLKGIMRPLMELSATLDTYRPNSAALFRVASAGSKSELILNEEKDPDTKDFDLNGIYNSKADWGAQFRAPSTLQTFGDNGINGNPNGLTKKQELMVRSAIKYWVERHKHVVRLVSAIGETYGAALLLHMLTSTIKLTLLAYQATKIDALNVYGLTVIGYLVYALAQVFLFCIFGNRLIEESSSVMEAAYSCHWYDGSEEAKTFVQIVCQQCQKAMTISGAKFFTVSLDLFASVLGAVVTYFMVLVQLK
The test is described as follows: Two-microelectrode voltage clamp of Xenopus oocytes co-expressing AaOr8 and AaOr7; odorant-induced whole-cell currents. The class given is cell-based. The conditions noted are these: Xenopus oocytes co-expressing AaOR8 and AaOR7, holding potential −80 mV, 8 sec odorant exposure, non-linear regression curve fit; read-out: EC50 (half maximal effective concentration) of AaOR8. On the procedure: Along with AaOr8, we co-expressed AaOr7 in Xenopus oocytes and electrophysiological responses (Fig. 1B) to each enantiomer were measured using the two-microelectrode voltage clamp technique. […] We established the concentration-response relationships for each compound (Fig. 1C) and their associated half maximal effective concentration (EC50) as a sensitivity criterion. […] Part of the response to the (S)-(+)-enantiomer may have been caused by the presence of trace amounts (1 part per thousand) of the (R)-(—)-enantiomer (see Material & Methods).
AaOr7 and AaOr8 cRNAs were synthesized from linearized pSP64DV expression vectors (Dr. Zwiebel, Vanderbilt University) using the mMESSAGE mMACHINE SP6 kit (Ambion). Following mechanical disruption of the Xenopus ovaries, stage […] oocytes were treated for 30 min at room temperature under 150 rpm shaking with a 2 mg/mL collagenase (SIGMA, C6895) solution in OR-2 buffer (5 mM HEPES, 1 mM Na2HPO4, 82.5 mM NaCl, and 2.5 mM MgCl2 [pH 7.6]). All procedures were performed in accordance with the NIH Institutional Animal Care and Use Committee and NIH guidelines. Oocytes were subsequently washed 5 times with OR-2 buffer, 5 times with MBSH buffer (10 mM HEPES, 2.4 mM NaHCO3, […], 1 mM KCl, 0.82 mM MgSO4, 0.41 mM CaCl2 and 0.33 mM (CaNO3)2, [pH 7.6]), 5 times with MBSH supplemented with 50 µg/ML gentamycin and 5 times with Ringer's buffer (96 mM NaCl, 2 mM KCl, 5 mM MgCl2, 6H2O, 5 mM HEPES and 0.8 mM CaCl2 [pH 7.6]) supplemented with 5% heat-inactivated horse serum, 50 µg/mL tetracycline, 100 µg/mL streptomycin and 550 µg/mL sodium pyruvate. Individual oocytes were allowed to recover overnight prior to injection with 10 ng of each cRNA and were recorded 4 to 6 days post-injection.
Whole-cell currents were recorded using the two-microelectrode voltage clamp technique, [58]. Odorants were dissolved in dimethyl sulfoxide (DMSO) at a 1∶10 ratio so that stock solutions could be made. Prior to recording, stock solutions were diluted in Ringer's solution [pH 7.6] (96 mM NaCl, 2 mM KCl, 5 mM MgCl2, 5 mM HEPES and 0.8 mM CaCl2) to the indicated concentrations before being applied to Xenopus oocytes in a RC-3Z oocyte recording chamber (Warner Instruments). Oocytes were continuously perfused by either pure Ringer's solution or exposed for 8 sec to serial dilutions of odorants dissolved in Ringer's solution. Odorant-induced currents were recorded with an OC-725C oocyte clamp (Warner Instruments) at a holding potential of −80 mV. Between stimulations, oocytes were allowed to return to their membrane resting potential by washing out the odorants using pure Ringer's solution. Data acquisition and analysis were carried out with Digidata 1440A and pCLAMP10 software (Axon Instruments).
Statistical analyses (GraphPad Prism5 Software, Inc.) of the logEC50 means were performed using an ordinary one-way ANOVA in conjunction with the Tukey Kramer multiple comparison post test (95% confidence interval). […] In all figures, graphical results are shown as means and standard error of the mean for a minimum of six independent oocytes. EC50 values for individual compounds were extrapolated using the non-linear regression curve fit function provided in Prism5.
In the case of `C=CCC(O)CCCC` (stereo not drawn) [1-Octen-4-ol], the EC50 was 39.1 µM.

In the case of `C=C[C@@H](O)CCCCC` [(S)-(+)-1-octen-3-ol], the EC50 is 17.2 µM.

Consider `C=CC(O)CCCCCC` (stereo not drawn) [1-Nonen-3-ol], for which the EC50 is 5.14 µM.

As for `C=CC(O)CCCC` (stereo not drawn) [1-Hepten-3-ol], the EC50 was found to be 17 µM.

With `C=C[C@H](O)CCCCC` [(R)-(—)-1-octen-3-ol], the EC50 was found to be 0.158 µM.

On to `C=CC(=O)CCCCC` [1-Octen-3-one], for which the EC50 was 23 µM.

On to `CCCCCC(O)CC` (stereo not drawn) [3-Octanol], for which the EC50 was 5.82 µM.
